Laboratory results reported in patent publication US8008061B2, “Trophic conversion of obligate phototrophic algae through metabolic engineering” (Martek Biosciences Corporation, priority 2000, dated 2011).

What was measured:
Format in all cases: cell-based
Cylindrotheca fusiformis = test: Antibiotic sensitivity in diatoms, growth on solid media; settings: C. fusiformis; for lowest concentration of the antibiotic per ml required for cell death or the highest concentration tested: Table C, 100% I.O. media, 2 weeks of illumination; for lowest concentration of antibiotic per ml required for cell death or the lowest concentration tested: media with reduced salinity, 25% of normal seawater
Method: (§1) The diatoms Phaeodactylum tricornutum, Cylindrotheca fusiformis, Cyclotella cryptica and Nitzschia alba were extensively tested for sensitivity to a series of antibiotics for which resistance genes are available, and the lowest concentrations which completely abrogate growth were determined for each antibiotic (Table C). […] These include antibiotics such as G418, Hygromycin, Kanamycin and Spectinomycin, which are routinely utilized for selection of other eukaryotic organisms.
(§2) The effective concentration range of the antibiotic in most cases was lowered by a factor of 10.
(§3) Cells of each diatom species were plated on solid media at salinity equivalents of 25-100% I.O. media, with a gradient of antibiotic concentrations. After 2 weeks of illumination the growth of the cells was assessed and the concentration of antibiotic required for cell death was determined. (Table D).

[1] = system: Phaeodactylum tricornutum; test: as above; settings: P. tricornutum; for lowest concentration of the antibiotic per ml required for cell death or the highest concentration tested: Table C, 100% I.O. media, 2 weeks of illumination
Method: as §1, §2, §3

Cyclotella cryptica = test: as above; settings: C. cryptica; for lowest concentration of the antibiotic per ml required for cell death or the highest concentration tested: Table C, 100% I.O. media, 2 weeks of illumination
Method: as §1, §2
After 2 weeks of illumination the growth of the cells was assessed and the concentration of antibiotic required for cell death was determined. (Table D).

[2] = system: diatoms Phaeodactylum tricornutum, Cylindrotheca fusiformis, Cyclotella cryptica and Nitzschia alba; test: Antibiotic sensitivity, statements for the diatoms tested together; settings: for effect on growth of the diatoms: compared to effectiveness in other eukaryotic organisms; for cell death: 100% I.O. media, the diatoms tested
Method: as §1, §2, §3

Nitzschia alba = test: Antibiotic sensitivity in diatoms, growth on solid media; parameters: unit not given here; settings: N. alba; Table C; 100% I.O. media; 2 weeks of illumination
Method: as §1, §3

Question: How did the “lowest concentration of the antibiotic per ml required for cell death or the highest concentration tested” value (Cylindrotheca fusiformis) turn out when `O=C(N[C@H](CO)[C@H](O)c1ccc([N+](=O)[O-])cc1)C(Cl)Cl` [Chloramphenicol] was run?
Answer: The value was 100 mg per ml.

Question: And the “lowest concentration of the antibiotic per ml required for cell death or the highest concentration tested” value [1]?
Answer: Its value is 200 mg per ml.

Question: What about the “lowest concentration of the antibiotic per ml required for cell death or the highest concentration tested” value (Cyclotella cryptica) of the same molecule?
Answer: Its value is 50 mg per ml.

Question: Which results are given for `CC[C@H]1OC(=O)[C@H](C)[C@@H](O[C@H]2C[C@@](C)(OC)[C@@H](O)[C@H](C)O2)[C@H](C)[C@@H](O[C@@H]2O[C@H](C)C[C@H](N(C)C)[C@H]2O)[C@](C)(O)C[C@@H](C)C(=O)[C@H](C)[C@@H](O)[C@]1(C)O` [Erythromycin]?
Answer: lowest concentration of the antibiotic per ml required for cell death or the highest concentration tested (Cylindrotheca fusiformis): 100 mg per ml; lowest concentration of the antibiotic per ml required for cell death or the highest concentration tested [1]: 100 mg per ml; lowest concentration of the antibiotic per ml required for cell death or the highest concentration tested (Cyclotella cryptica): 50 mg per ml

Question: What does the source list for `CN[C@@H]1[C@@H](O)[C@@H](O[C@@H]2[C@@H](O)[C@H](O[C@H]3O[C@H]([C@@H](C)O)[C@@H](O)[C@H](O)[C@H]3N)[C@@H](N)C[C@H]2N)OC[C@]1(C)O` [G418]?
Answer: effect on growth of the diatoms [2]: no significant effect on growth or were effective only at very high concentrations; lowest concentration of the antibiotic per ml required for cell death or the highest concentration tested (Cylindrotheca fusiformis): >1 mg per ml

Question: For `NC[C@H]1O[C@H](O[C@H]2[C@H](O)[C@@H](O[C@H]3O[C@H](CO)[C@@H](O)[C@H](N)[C@H]3O)[C@H](N)C[C@@H]2N)[C@H](O)[C@@H](O)[C@@H]1O` [Kanamycin], which “lowest concentration of the antibiotic per ml required for cell death or the highest concentration tested” value (Cylindrotheca fusiformis) is on record?
Answer: The value was over 1 mg per ml.

Question: What about the “lowest concentration of the antibiotic per ml required for cell death or the highest concentration tested” value [1] of the same molecule?
Answer: The value was over 1 mg per ml.

Question: What about the “lowest concentration of the antibiotic per ml required for cell death or the highest concentration tested” value (Cyclotella cryptica) of the same molecule?
Answer: Its value is over 1 mg per ml.

Question: How did the “lowest concentration of the antibiotic per ml required for cell death or the highest concentration tested” value (Cylindrotheca fusiformis) turn out when `COc1ccc(C[C@H](N)C(=O)N[C@H]2[C@@H](O)[C@H](n3cnc4c(N(C)C)ncnc43)O[C@@H]2CO)cc1` [Puromycin] was run?
Answer: The value was 100 mg per ml.

Question: And the “lowest concentration of the antibiotic per ml required for cell death or the highest concentration tested” value [1]?
Answer: The value was 200 mg per ml.

Question: And the “lowest concentration of the antibiotic per ml required for cell death or the highest concentration tested” value (Cyclotella cryptica)?
Answer: Its value is 100 mg per ml.

Question: How did the “effect on growth of the diatoms” value [2] turn out when `CN[C@@H]1[C@H](O)[C@H](NC)[C@H]2O[C@@]3(O)C(=O)C[C@@H](C)O[C@H]3O[C@@H]2[C@H]1O` [Spectinomycin] was run?
Answer: The value was “no significant effect on growth or were effective only at very high concentrations”.

Question: And the “lowest concentration of the antibiotic per ml required for cell death or the highest concentration tested” value (Cylindrotheca fusiformis)?
Answer: The value was over 1 mg per ml.

Question: And the “lowest concentration of the antibiotic per ml required for cell death or the highest concentration tested” value (Cyclotella cryptica)?
Answer: The value was over 1 mg per ml.

Question: For `[H]/N=C(/N)N[C@H]1[C@H](O)[C@@H](O)[C@H](O[C@@H]2O[C@@H](C)[C@](O)(C=O)[C@H]2O[C@@H]2O[C@@H](CO)[C@H](O)[C@@H](O)[C@@H]2NC)[C@@H](N/C(N)=N\[H])[C@@H]1O` [Streptomycin], which “lowest concentration of the antibiotic per ml required for cell death or the highest concentration tested” value (Cylindrotheca fusiformis) is on record?
Answer: Its value is over 1 mg per ml.

Question: What about the “lowest concentration of the antibiotic per ml required for cell death or the highest concentration tested” value [1] of the same molecule?
Answer: The value was over 1 mg per ml.

Question: What about the “lowest concentration of the antibiotic per ml required for cell death or the highest concentration tested” value (Cyclotella cryptica) of the same molecule?
Answer: Its value is over 1 mg per ml.

Question: Which cell death [2] does the source give for `Cc1c(N)nc([C@H](CC(N)=O)NC[C@H](N)C(N)=O)nc1C(=O)N[C@H](C(=O)N[C@H](C)[C@@H](O)[C@H](C)C(=O)N[C@H](C(=O)NCCC1=N[C@@H](c2nc(C(=O)NCCCCN=C(N)N)cs2)CS1)[C@@H](C)O)[C@@H](O[C@@H]1O[C@@H](CO)[C@@H](O)[C@H](O)[C@@H]1O[C@H]1O[C@H](CO)[C@@H](O)[C@H](OC(N)=O)[C@@H]1O)c1cnc[nH]1` [Zeocin] here?
Answer: The cell death was “resulted in cell death”.

Question: What about the “lowest concentration of the antibiotic per ml required for cell death or the highest concentration tested” value (Cyclotella cryptica) of the same molecule?
Answer: Its value is 250 mg per ml.

Question: What about the “lowest concentration of the antibiotic per ml required for cell death or the highest concentration tested” value (Nitzschia alba) of the same molecule?
Answer: Its value is over 250.

Question: How did the “lowest concentration of the antibiotic per ml required for cell death or the highest concentration tested” value (Cylindrotheca fusiformis) turn out when Bleomycin was run?
Answer: Its value is over 50 mg per ml.

Question: What does the source list for Gentamicin?
Answer: lowest concentration of the antibiotic per ml required for cell death or the highest concentration tested (Cylindrotheca fusiformis): >1 mg per ml; lowest concentration of the antibiotic per ml required for cell death or the highest concentration tested [1]: >1 mg per ml; lowest concentration of the antibiotic per ml required for cell death or the highest concentration tested (Cyclotella cryptica): >1 mg per ml

Question: What does the source list for Neomycin?
Answer: lowest concentration of the antibiotic per ml required for cell death or the highest concentration tested (Cylindrotheca fusiformis): >1 mg per ml; lowest concentration of the antibiotic per ml required for cell death or the highest concentration tested (Cyclotella cryptica): >1 mg per ml; lowest concentration of the antibiotic per ml required for cell death or the highest concentration tested (Nitzschia alba): >1

Question: With Nourseothricin as the molecule, how does the “lowest concentration of the antibiotic per ml required for cell death or the highest concentration tested” value (Cylindrotheca fusiformis) read?
Answer: Its value is over 250 mg per ml.

Question: What about the “lowest concentration of antibiotic per ml required for cell death or the lowest concentration tested” value (Cylindrotheca fusiformis) of the same molecule?
Answer: The value was <10 mg (25%) mg per ml.

Question: What about the “lowest concentration of the antibiotic per ml required for cell death or the highest concentration tested” value (Cyclotella cryptica) of the same molecule?
Answer: Its value is over 250 mg per ml.

Question: And the “lowest concentration of the antibiotic per ml required for cell death or the highest concentration tested” value (Nitzschia alba)?
Answer: The value was over 250.

Question: How did the cell death [2] turn out when Phleomycin was run?
Answer: The cell death was “resulted in cell death”.

Question: What about the “lowest concentration of antibiotic per ml required for cell death or the lowest concentration tested” value (Cylindrotheca fusiformis) of the same molecule?
Answer: Its value is <5 mg (25%) mg per ml.

Question: What about the “lowest concentration of antibiotic per ml required for cell death or the lowest concentration tested” value ([1]; media with reduced salinity, 25% of normal seawater) of the same molecule?
Answer: Its value is <5 mg (25%) mg per ml.

Question: What about the “lowest concentration of the antibiotic per ml required for cell death or the highest concentration tested” value (Cyclotella cryptica) of the same molecule?
Answer: Its value is 25 mg per ml.

Question: What about the “lowest concentration of antibiotic per ml required for cell death or the lowest concentration tested” value (Cyclotella cryptica; media with reduced salinity, 10% of normal seawater) of the same molecule?
Answer: The value was <5 mg (10%) mg per ml.
